Assay results as given in publication PMC8861431, “Tissue Pharmacokinetic Properties and Bystander Potential of Hypoxia-Activated Prodrug CP-506 by Agent-Based Modelling” (Frontiers in Pharmacology, 2022).
Where “and” joins values, the source holds several entries; their conditions need not be identical. Identical values can stand only once.

Columns and labels:
[1] = system: POR-overexpressing HCT-116 cells (POR-R) monolayer; test: Cellular uptake studies / cellular PK model; type: in vitro ADME, human; details: for k in: rate constant for transfer from the extracellular to intracellular volume / k out: rate constant for transfer from the intracellular to extracellular volume: Table 1, ABM parameter, estimated from partitioning in monolayer cultures; for kin: rate of transfer from the extracellular to the intracellular compartment / kout: rate of transfer from the intracellular to the extracellular compartment: Table S3, cellular PK model, monolayer ABM fit; for kmet: rate of metabolism to the next metabolite: Table S3, anoxic, CP-506 to CP-506H, CP-506H to CP-506M, CP-506M to CP-506M-Cl2; for Activator k met0: rate constant for the maximum rate of metabolism in POR-R cells under anoxia / kmet: rate of metabolism to the next metabolite: POR-R cells
Experimental: (§1) The intracellular/extracellular partitioning ratio for CP-506 and its major metabolites was determined in monolayer cultures of POR-overexpressing HCT-116 cells, as described previously ([Hong et al., 2018b]). Briefly, cells (5 x 10^5 per well) were seeded with 350 µl medium into 24-well plates and left to attach for 2 h in a humidified 37°C incubator. Stock solutions of CP-506 were diluted and added with 50 µl medium to the well volume to achieve a final concentration of 100 µM. Samples were harvested at various time points for up to 3 h thereafter. Aerobic experiments were performed under standard tissue culture conditions (21% O2), and the anoxic experiments in parallel in a H2/Pd-catalyst-scrubbed anaerobic chamber as described. The well volume was spiked with [^3H]-mannitol immediately before sample harvest and treated with two-volumes of ice-cold acetonitrile containing 2 µM of the deuterated (D8) internal standards for each CP-506, CP-506H and CP-506M. The cell monolayer was then treated with 100 µl of this crashing solution. Samples were stored at −80°C until LC-MS/MS analysis. The cellular exclusion of [^3H]-mannitol was used to account for the contribution of the extracellular medium toward determinations of the intracellular concentration, as described previously ([Foehrenbacher et al., 2013a]).
(§2) An agent-based model (ABM) employing a one-dimensional approximation for monolayers was used to develop a cellular PK model, as described in further detail elsewhere ([Hong et al., 2018b]; [Mao et al., 2018]). The mathematical framework assumes that solute concentrations in the medium are dependent only on the depth (on the z coordinate) and not the lateral position (x,y) so that all cells are exposed to the same concentration of nutrients and drugs within the monolayer culture. Moreover, all cells have the same rate of metabolism and volume growth at any instance with variability allowed in cell volume, rate of cell division and cell death. Monolayer ABM simulations were performed on a desktop Windows PC (Intel core I7 processor) from a Qt (Qt Company, https://www.qt.io/) graphical user interface passing parameters to a DLL built with Fortran95. The monolayer ABM uses a finite difference method to solve reaction-diffusion equations for each compound (N) in the medium and cells. Parameters for the cellular uptake and metabolism were fitted to the concentration-time profiles of CP-506 and its metabolites in monolayer cultures of POR-R cells using a linear (first order) cell transport and metabolism model. Terms for the extracellular instability of CP-506 and its metabolites were set at their respective values in media stability studies, and media diffusion coefficients were estimated from the support membrane diffusion coefficients described below. Experimental data describing the kinetics of CP-506 uptake under aerobic conditions was fitted by adjusting the permeability coefficients kin and kout for each compound. These values were fixed for anoxic experiments to allow for parameter estimation of the rate of intracellular CP-506 metabolism (kmet0) as well as the intracellular/extracellular partitioning ratio (kin and kout) and metabolic instability (kmet0) for its cytotoxic metabolites.

[2] = Diffusion across bare collagen-coated support membrane (without cells); type: in vitro ADME; details: for D M: diffusion coefficient in medium: Table 1
Experimental: The extravascular transport properties of CP-506 and its formed metabolites were investigated using a custom-designed diffusion apparatus, as described previously ([Hicks et al., 2006]). Briefly, MCL cultures were established by seeding 1 x 10^6 POR-R cells onto collagen-coated Millicell-CM inserts for 3 days. Established MCLs were placed at the interface of the two media-filled compartments of diffusion chambers. Diffusion chambers were placed in a 37°C water bath and gassed with a supraoxic (95% O2, 5% CO2) or anoxic (5% CO2, bal N2) mixture for at least 1 h prior to drug addition. Flux was initiated by the addition of internal standard ([^14C]-urea) and 20 µM CP-506 to the donor compartment. Samples (100 µl) were collected from both the donor and receiver compartments for up to 5 h thereafter. At each time point, a 25 µl aliquot was mixed with emulsifier-safe water-accepting scintillant and assayed for radioactivity using a Perkin Elmer Tricard 2910 TR liquid scintillation analyser. The remaining sample was treated with two volumes of ice-cold acetonitrile (containing 2 µM of the relevant deuterated internal standards) and stored at −80°C until LC-MS/MS analysis. Similar experiments were performed using collagen-coated inserts without MCLs to deduce the chemical stability and diffusion coefficient of CP-506 across the bare support membrane.
Drug transport in MCLs was modelled as a one-dimensional diffusion with reaction across four consecutive compartments (stirred donor, POR-R MCL, collagen-coated teflon support membrane and stirred receiver) using a custom designed MatLab routine ([Foehrenbacher et al., 2013a]). Model parameters were derived by fitting Eq. 1 and Eq. 2 to the measured concentration-time profile of internal standard [^14C]-urea, CP-506, CP-506H and CP-506M in MCL flux studies. The flux of CP-506 and its metabolites across POR-R MCLs was described using Fick’s second law with a reaction term: ∂CeN/∂t=DN∂^2CeN/∂x^2−klossNCeN− φ( kinNCeN− koutNCiN) (1) ∂CiN/∂t= kmet0(N−1)Ci(N−1)+φ(kinNCeN− koutNCiN)−kmet0NCiN (2) where C is the concentration of the diffusing substance at position x and time t in the extracellular (e) or intracellular (i) compartment, D is the diffusion coefficient through either a bare support membrane (without cells) (D suo ) or extracellular space of a POR-R MCL (D MCL ), k loss is the rate constant for first-order loss (instability) in culture medium, k in and k out are the rate constants for transmembrane transport and k met0 is the rate constant for intracellular metabolism and instability for each compound (N). For metabolites, N-1 represents the previous compound from which the current compound is produced by metabolism. Experimental data was fitted iteratively to derive a tissue diffusion coefficient (DMCL) and metabolic scaling factor (φ i ) to restrain parameter estimates from the cellular PK model (Kin, Kout, Kmet0). The diffusion coefficient for CP-506 across the bare support membrane (Dsup) was determined by solving Eq. 1 with a reaction term only for chemical instability. MCL thicknesses were estimated by fitting the measured [^14C]-urea concentrations to those predicted by Eq. 1 and Eq. 2 without instability or metabolism by using the known diffusion coefficient (DMCL) for [^14C]-urea in HCT-116 MCLs ([Wilson et al., 2004]). The diffusion coefficient (DMCL) for CP-506 in POR-R MCLs was then fitted from the measured concentrations in the donor and receiver compartments of supraoxic experiments by assuming one-directional diffusion in the extracellular space. The metabolic scaling factor (φ i ) was then fitted from the measured concentrations in the donor and receiver compartment of anoxic experiments by fixing parameter estimates to the diffusion coefficient (DMCL) from supraoxic experiments.

[3] = Cellular uptake studies / cellular PK model; type: in vitro ADME, human; details: human, POR-overexpressing HCT-116 (POR-R) cell monolayer; Table S3, cellular PK model (extracellular instability); read-out: T1/2: time required to reduce the concentration to half its initial value (converted)
Experimental: as §1, §2

[4] = assumed equivalent to CP-506 for the active metabolites

Structure (SMILES)	Activator k met0: rate constant for the maximum rate of metabolism in POR-R cells under anoxia ([1]; footnote d: assumed equivalent to the measured metabolites or from published PR-104A estimates)	D M: diffusion coefficient in medium [2, 4]	half-life at 100 µM [3] [min]	Activator k met0: rate constant for the maximum rate of metabolism in POR-R cells under anoxia [1] [min⁻¹]	k in: rate constant for transfer from the extracellular to intracellular volume [1] [min⁻¹]	k out: rate constant for transfer from the intracellular to extracellular volume [1] [min⁻¹]	kin: rate of transfer from the extracellular to the intracellular compartment [1] [min⁻¹]	kout: rate of transfer from the intracellular to the extracellular compartment [1] [min⁻¹]	kmet: rate of metabolism to the next metabolite [1] [min⁻¹]	Steady-state Ci/Ce ratio (cell uptake) ([1]; anoxic <1 ppm O2, POR-R monolayer) [fold]	D M: diffusion coefficient in medium ([2]; Dsup fitted for bare support membranes under supraoxic conditions)	Dsup: diffusion coefficient across bare support membranes ([2]; anoxic (5% CO2, bal N2))	Dsup: diffusion coefficient across bare support membranes ([2]; supraoxic (95% O2, 5% CO2))
CCN1CCN(C(=O)c2cc(N(CCCl)CCCl)c(S(C)(=O)=O)cc2N)CC1 [CP-506M-Cl2, (2-Amino-5-(bis(2-chloroethyl)amino)-4-(methylsulfonyl)phenyl)(4-ethylpiperazin-1-yl)methanone]	0.1 ^d min^−1	1.32 × 10^−6 ± 0.19 × 10^−6 cm^2s^−1	–	–	–	–	–	–	–	–	–	–	–
CCN1CCN(C(=O)c2cc(N(CCBr)CCOS(C)(=O)=O)c(S(C)(=O)=O)cc2N)CC1 [CP-506M, 2-((4-amino-5-(4-ethylpiperazine-1-carbonyl)-2-(methylsulfonyl)phenyl)(2-bromoethyl)amino)ethyl methanesulfonate]	–	1.32 × 10^−6 ± 0.19 × 10^−6 cm^2s^−1	6.6	0.1	0.9	0.4	0.9	0.4	0.1	–	–	–	–
CCN1CCN(C(=O)c2cc(N(CCBr)CCOS(C)(=O)=O)c(S(C)(=O)=O)cc2NO)CC1 [CP-506H, 2-((2-bromoethyl)(5-(4-ethylpiperazine-1-carbonyl)-4-(hydroxyamino)-2-(methylsulfonyl)phenyl)amino)ethyl methanesulfonate]	–	1.32 × 10^−6 ± 0.19 × 10^−6 cm^2s^−1	12.6	0.09	0.9	0.25	0.9	0.25	0.09	–	–	–	–
CCN1CCN(C(=O)c2cc(N(CCBr)CCOS(C)(=O)=O)c(S(C)(=O)=O)cc2[N+](=O)[O-])CC1 [CP-506, 2-[(2-bromoethyl)-5-[(4-ethyl-1-piperazinyl)carbonyl]-2-(methylsulfonyl)-4-nitroanilino]ethyl methanesulfonate]	–	–	1200	0.12	3.7	0.06	3.7	0.06	0.12	40	1.32 × 10^−6 ± 0.19 × 10^−6 cm^2s^−1	0.717 ± 0.01 x 10^−6 cm^2 s^−1 and 0.717 ± 0.01 (3) x 10^−6 cm^2 s^−1	1.32 ± 0.19 x 10^−6 cm^2 s^−1 and 1.32 ± 0.19 (2) ^b x 10^−6 cm^2 s^−1
